The test system of the assay is Corticium sasakii. Briefly: Activity against sheath blight on rice caused by Corticium sasakii (protective spray, rice plants cultivar Tai-Nong 67). In kind it is in vivo. The conditions noted are these: individual active compound, 11 days after infection. As for the experimental part: The active compounds, separately or jointly, were prepared as a stock solution with 0.25% by weight of active compound in acetone or DMSO. 1% by weight of the emulsifier Uniperol® EL (wetting agent having emulsifying and dispersing action based on ethoxylated alkylphenols) was added to this solution, and the solution was diluted with water to the desired concentration.
Use Example—Activity Against Sheath Blight on Rice Caused by Corticium sasakii
Pots of rice plants of the cultivar “Tai-Nong 67” were sprayed to runoff point with an aqueous suspension having the concentration of active compound stated below. The next day, oat grains infected with Corticium sasakii were placed into the pots (in each case 5 grains per pot). The plants were then placed in a chamber at 26° C. and maximum atmospheric humidity. After 11 days, the sheath blight on the untreated but infected control plants had developed to such an extent that the infection could be determined visually in %.
Evaluation is carried out by determining the infected leaf areas in percent. These percentages were converted into efficacies.
The efficacy (E) is calculated as follows using Abbot's formula:
E=(1−α/β)·100 • α corresponds to the fungicidal infection of the treated plants in % and • β corresponds to the fungicidal infection of the untreated (control) plants in %
An efficacy of 0 means that the infection level of the treated plants corresponds to that of the untreated control plants; an efficacy of 100 means that the treated plants are not infected.
The expected efficacies of the mixtures of active compounds are determined using Colby's formula [R. S. Colby, Weeds 15, 20-22 (1967)] and compared with the observed efficacies.
E=x+y−x·y/100 • E expected efficacy, expressed in % of the untreated control, when using the mixture of the active compounds A and B at the concentrations a and b • x efficacy, expressed in % of the untreated control, when using active compound A at the concentration a • y efficacy, expressed in % of the untreated control, when using active compound B at the concentration b

Regarding `CC1CCN(c2c(-c3c(F)cccc3Cl)c(Cl)nc3ncnn23)CC1` [A], the “Efficacy in % of the untreated control” value (4 ppm in the spray liquor) was determined as 12%.
On to `CC(Nc1c(-c2c(F)cc(F)cc2F)c(Cl)nc2ncnn12)C(F)(F)F` (stereo not drawn) [B], for which the “Efficacy in % of the untreated control” value (4 ppm in the spray liquor) came to 56%.
As to `CC1CCN(c2c(-c3c(F)cc(F)cc3F)c(Cl)nc3ncnn23)CC1` [I, 5-chloro-7-(4-methylpiperidin-1-yl)-6-(2,4,6-trifluorophenyl)-[1,2,4]tri-azolo[1,5-a]pyrimidine], where the note is “4 ppm in the spray liquor”, the “Efficacy in % of the untreated control” value was found to be 34%.
In the case of `N#Cc1c(Cl)c(Cl)c(Cl)c(C#N)c1Cl` [II, 2,4,5,6-tetrachloroisophthalonitrile], the “Efficacy in % of the untreated control” value reads like this: (1 ppm in the spray liquor) 0%; (4 ppm in the spray liquor) 0%; (16 ppm in the spray liquor) 0%.

These data come from US20080051284A1, “Fungicidal Mixtures for Controlling Rice Pathogens” (BASF AKTIENGESELLSCHAFT, priority 2003, published 2008).
